ChEMBL document CHEMBL1141386, “Metabolites from the Lichen Ochrolechia parella growing under two different heliotropic conditions” (J Nat Prod, 2007)

These molecules were tested on B16 (assay: Cytotoxicity against murine B16 cells by MTT assay). Details: Mus musculus.
Type: cell-based
`CCCCCC(=O)Cc1cc(O)cc2c1C(=O)Oc1cc(O)c(C(=O)O)c(CC(=O)CCCCC)c1O2` was tested, and the IC50 was 10.3 µM.
`COc1cccc2c1C(=O)c1c(O)c3c(c(O)c1C2=O)C[C@@](O)(C(=O)CO)C[C@@H]3O[C@H]1C[C@H](N)[C@H](O)[C@H](C)O1` [DOXORUBICIN] gave an IC50 of 0.1 µM.
For `CC(C)[C@@H](C)/C=C/[C@@H](C)[C@H]1CC[C@@H]2[C@]1(C)CC[C@H]1[C@]23C=C[C@]2(C[C@@H](O)CC[C@]12C)OO3` [ERGOSTEROL PEROXIDE], the IC50 was 77.9 µM.
`Cc1cc(O)cc2c1C(=O)Oc1cc3c(c(O)c1O2)C(=O)OC3` [VARIOLARIC ACID] gave an IC50 of 38.7 µM.
